Residues, ends and D or L forms follow the SMILES beside them.

As to `CC(=O)NC[C@H]1CN(c2ccc(C(=O)c3cnc4cnc(Br)cn34)cc2)C(=O)O1`, the melting point was in the range of 216 to 220 °C.
Regarding `O=S1(=O)N=CN(C2CC2)c2ccc(F)c(Cl)c21`, the melting point lay in the range of 260 to 263 °C.
`CCOC(=O)c1cn(C2COC2)c2c(OC)c(F)c(F)cc2c1=O` returned a melting point of 195 to 198 °C.
The compound `O=[N+]([O-])c1ccc(Sc2ccc(C(F)(F)F)cc2)c2nonc12` showed a melting point of 134 to 138 °C.
Next, `CC(C)COC(=O)N[C@@H](CC(C)C)C(=O)N[C@@H](C(C)C)[C@@H](O)c1c(-c2ccccc2)c1=O`: 145 to 146 °C; `N#Cc1ccc(OCc2cnsc2)cc1F`: 102 to 105 °C.
Next, `O=C(O)CCCCCCCCc1ccco1`: 31 to 32 °C; `COc1ccc(C(C)N(C)CCCOc2ccc(S(=O)(=O)c3ncc(-c4ccccc4)n3-c3ccccc3)cc2)cc1OC` (configuration not stated): 162 °C; `COc1nc(C)c(N2CCCn3c2nc2c(Br)ccc(C(OC(F)F)C(F)(F)F)c23)c(C)n1` (configuration not stated): 211 to 213 °C.
For the compound `COc1ccc(C(=O)C(CCC(C)=O)c2ccc(OC)cc2)cc1` (configuration not stated), the melting point lay within 62 to 65 °C.
Turning to `CN1CCN(c2cc(Cl)cc3c2c(=O)n(Cc2ccc(N)cc2)c(=O)n3Cc2ccccc2)CC1`, the melting point was 93 to 96 °C.
As to `CCc1cc2c(=O)n3cc(C#N)ccc3nc2s1`, the melting point fell in the range of 223 to 224 °C.
Next, `Brc1nc2ncsc2nc1Br`: 142 to 144 °C; `CCN(CC)C(=O)n1cc(C(F)F)c(S(=O)(=O)c2cc(Cl)cc(Cl)c2)n1`: 112 to 113 °C.
`CCCNC(=O)c1nc(CCl)n(-c2ccc(Cl)cc2C(=O)c2ccccc2Cl)n1` had a melting point of 110 to 113 °C.
Next, `N=C(N)N(C[C@H]1CC[C@H](C(=O)Nc2ccnc3[nH]ccc23)CC1)C(=O)OCc1ccccc1`: 160 to 162 °C; `COC(=O)c1nc(-c2ccc(Cl)c(OC)c2F)nc(N)c1OCC(F)(F)F`: 123 to 125 °C.
Compound `CCCOc1ccc2c(c1)[C@H](c1ccc(OC)cc1-c1ccccc1)[C@@H](C(=O)O)[C@@H]2c1ccc2c(c1)OCO2` (racemic) gave a melting point of 199 to 200 °C.
Next, `COC(=O)CC(C(OC)OC)C(C)(C)S(=O)(=O)c1ccc(C)cc1` (configuration not stated): 110 °C.
Next, `CC(C)(O)C#Cc1nccs1`: 69 to 70 °C.
Turning to `CS(=O)(=O)c1ccc(-c2cnn(-c3ccc(F)cc3)c(=O)c2S(=O)(=O)c2ccccc2)cc1`, the melting point lay in the range of 203 to 204 °C.
Next, `CN1CNC(=S)N(c2ccc(Cl)cc2)C1`: 178 to 179 °C.
Next, `N#Cc1cc2nc(O)c(O)nc2c2ccccc12`: over 300 °C; `CN1CCC(Sc2[nH]nc(-c3ccc(Cl)cc3)c2-c2ccncc2)CC1`: 228 °C.
On to `COC(=O)C(=CN(C)C)n1ccc2ccc(-c3nccc(-c4ccccc4)n3)cc21`, for which the melting point was determined as 168 °C.
In turn, `CCCCC(CC)C(=O)Nc1ccc(Oc2ccccc2)c2c(=O)c3ccccc3n(C)c12` (configuration not stated) yielded a melting point of 154 to 156 °C.
Next, `COc1cccc2c1C13CCNC(C2)C1(O)CCC(=O)C3` (configuration not stated): 137 to 139 °C; `CCc1c(C(F)(F)F)nn(-c2ccc(S(N)(=O)=O)cc2)c1-c1ccc(OC)c(C)c1`: 135 to 136 °C; `CCC(=O)Cc1ccc(C(=O)Nc2ccc3cc(CN4CCCC4)cnc3c2C)cc1`: 157 °C.
Next, `NC(=O)CC(NC(=O)C(N)CO)C(=O)NC(Cc1ccccc1)C(N)=O` (stereo not drawn) (H-Ser-Asn-Phe-NH2; configuration not given here): 169 to 172 °C.
For the compound `O=C1CCCC(=O)N1c1cc(I)cc(I)c1`, the melting point lay in the range of 177 to 178 °C.
Next, `Cc1nc(N)nc(N)c1-c1cc(I)ccc1Cl`: 232 to 234 °C; `N#Cc1ccc2c(c1)-c1cc(C#N)ccc1OCCO2`: 195 to 196 °C; `NC(=O)c1cc(OCCNCC(O)c2ccco2)ccc1O` (configuration not stated): 169 to 171 °C.
In the case of `Cc1cccc(C)c1C(=Nc1ccc(F)cc1)NC(=NC1CCCCC1)N1CCCCC1C` (configuration not stated), the melting point was 167 to 168 °C.
Next, `CCOC(=O)C(C(=O)OCC)c1cccc(C(=O)c2ccccc2)c1[N+](=O)[O-]`: 130 to 131 °C; `N#CC(=NO)c1c(F)cccc1Cl`: 119 to 120 °C; `NC(=O)N1CCN(CC(O)COc2ccc(Cl)cc2)CC1` (configuration not stated): 193 to 196 °C.
The compound `Cc1ccn(-c2ccc(S(C)(=O)=O)cc2)c1-c1ccc(Cl)cc1` had a melting point of 173 to 174 °C.
The compound `CS(=O)(=O)Nc1cc(NC(=O)CCl)c([N+](=O)[O-])cc1Oc1ccccc1` showed a melting point of 194 to 195 °C.
`COc1ccc(Oc2cccc3ncnc(NC(C)=O)c23)cc1` yielded a melting point of 174 to 175 °C.
With `CCc1cc(-n2c(=O)[nH]c3cc(C(F)(F)F)c(Oc4ccccc4)cc32)c(OC)cc1OC`, the melting point is over 240 °C.
Next, `CCCN(CCC)C1CCc2cc(NC(=O)C=NO)ccc2C1` (configuration not stated): 110 to 112 °C; `O=C(Nc1ccc(Oc2cc(Cl)ncn2)cc1)Nc1ccc(Br)c(C(F)(F)F)c1`: 179 to 182 °C.
In turn, `CCn1c(Cn2ccnc2-c2cc(F)ccc2F)nc2ncccc21` displayed a melting point of 214 to 216 °C.
In the case of `CCCNc1nc(=O)n(C2CC(N=[N+]=[N-])C(COC(C)=O)O2)cc1C` (configuration not stated), the melting point was in the range of 138 to 140 °C.
The compound `C[C@@H]1CN(c2c(F)c(N)c3c(=O)c(C(=O)O)cn(C4CC4)c3c2F)C[C@H](C)N1` had a melting point of 258 to 260 °C.
In turn, `c1ccc2c(c1)CC1(C3=NCCN3)CC21` (single isomer, unassigned; (+)) had a melting point of 245 to 247 °C.
`CCOc1cc(Oc2ccc(S(C)(=O)=O)nc2)cc2cc(C3=NCC(CC(N)=O)S3)[nH]c12` (configuration not stated) had a melting point of 195 to 196 °C.
Next, `CC1(C)OCC[C@@H]2[C@@H](NC(=O)OCc3ccccc3)C(=O)N21` (relative stereo): 129 to 131 °C; `CC(=O)OC(C)N1C(=O)/C(=C\c2[nH]c(C)cc2C)c2ccccc21` (configuration not stated): 107 to 110 °C; `CC(C)c1ccc(C(=O)Cc2cccs2)c(C(C)C)c1OS(N)(=O)=O`: 133 to 136 °C.
Next, `O=C(O)c1cccc(CNC(=O)C2Cc3ccccc3N2S(=O)(=O)c2ccc(-c3cccc(C(F)(F)F)c3)cc2)c1` (configuration not stated): 96 °C; `CCOC(=O)C(C)(C)Oc1cc2c(cc1C)OC1(CC(C)(C)c3cc(O)c(C)cc3O1)CC2(C)C` (single isomer, unassigned; (-)): 165 to 166 °C; `O=C(O)[C@H](Cc1ccc(F)cc1)[C@@H](O)c1ccc(F)cc1` (racemic): 169 to 170 °C.
Next, `COc1cccc(-c2cn3cc(-c4cccc(CO)c4F)ccc3n2)c1`: 143 to 144 °C; `CCCCCCCC(=O)NNC(=O)N1Cc2ccccc2Oc2ccc(Cl)cc21`: 127 to 129 °C; `CCCn1nc(-c2ccc(OC(=O)CC)cc2)c2cccc(Cl)c21`: 66 to 67 °C.
Take `COC(=O)CCc1cccc(OCCC2Oc3ccccc3N(Cc3cccc(Cl)c3)C2=O)c1` (configuration not stated): the melting point lay in the range of 92 to 94 °C.
Compound `COc1c(Cl)ccc(-c2nc(C(=O)OC(C)C)cc(N)c2F)c1F` showed a melting point of 177 to 179 °C.
Next, `CCOC(=O)[C@@H](CNC(=O)c1ccccc1)[C@H](C)O`: 72 to 73 °C.
As for `O=C(Cc1ccc(Cc2ccc(F)cc2)o1)C(=O)c1ccc[nH]1`, the melting point was in the range of 96 to 98 °C.
In the case of `CCCc1c(OCCCCCC(=O)c2cc(OC)c(OC)c(C(C)C)c2)ccc(C(=O)O)c1O`, the melting point lay in the range of 113 to 115 °C.
`CCCc1c(O)cc(O)c(C)c1C(=O)OC`: the melting point lay in the range of 88 to 91 °C.
With `CCCCNC(=O)N1N=C(c2ccc([N+](=O)[O-])cc2)c2cc(Cl)ccc2CC1C` (configuration not stated), the melting point is 150 °C.
For `COc1cc(OC)c2c(=O)[nH]c(-c3cc(C)c(OCCN4CCCC4)c(C)c3)nc2c1`, the melting point lay within 181 to 183 °C.
On to `CN(C)S(=O)(=O)Cc1ccccc1N`, for which the melting point was 70 to 78 °C.
Next, `COc1ccc(N(C(=O)F)C(=O)Cl)cc1Cl`: 124 to 127 °C; `CC(C)(C)OC(=O)Nc1ccc(-c2ccc(F)cc2F)cc1NC(=O)CC(=O)c1ccnc(C#N)c1`: 160 to 161 °C.
Next, `CCOC(=O)c1cc(CC)sc1Nc1cc(F)cc(F)c1N`: 106 °C.
Next, `COc1ccc(C(=O)CC(C)C)cc1OCCCO`: 38 to 40 °C; `CCCCCCC1=NOC(=O)/C1=C\Nc1ccc(CCCCCC)cc1`: 88 to 90 °C; `O=C1CCC(c2ccc([N+](=O)[O-])cc2)CC1`: 160 to 162 °C.
Regarding `CC(C)(CO)NC(N)=S`, the melting point was 127 to 129 °C.
Next, `Cc1cc(COc2nn(Cc3ccccc3)cc2CO)ccc1OCc1nc(-c2ccco2)oc1C`: 91 to 92 °C; `Cc1ccc(C)n1C(C)c1nccc(I)c1F` (configuration not stated): 156 to 158 °C; `COc1ccc(NCCSC#N)c([N+](=O)[O-])c1`: 116 to 118 °C.
Next, `O=C(CBr)c1cc(OCc2ccccc2)no1`: 80 to 81 °C.
The compound `CC(C)=NOc1cc(OCc2ccccc2)ccc1C#N` had a melting point of 102 °C.
In turn, `COC(=O)c1ccc2oc(CCCc3cc4cc(C(=O)OC)ccc4o3)cc2c1` returned a melting point of 87 to 88 °C.
In turn, `COc1ccc2c(c1)c(SC)c(C(N)=O)n2C` registered a melting point of 204 to 206 °C.
Next, `Nc1nc(/C=C/c2ccc([N+](=O)[O-])cc2)cs1`: 278 °C; `OC(CN1CCNC1=S)c1ccc(F)cc1` (configuration not stated): 130 °C.
As for `C/C(=C\c1ccc(O)cc1)c1ccc2c(c1)C(C)(C)CCC2(C)C`, the melting point fell in the range of 138 to 140 °C.
Next, `CCc1nc2ncnc(-c3c(C)cc(C)cc3C)c2[nH]1`: 215 to 217 °C; `O=C(O)Cc1ccc(OCCNC(=O)C2Cc3ccccc3N2S(=O)(=O)c2ccc(-c3ccc(F)cc3Cl)cc2)cc1` (configuration not stated): 90 °C; `COc1cccc(OC)c1C(=O)Nc1cc(C(C)(C)C)ns1`: 266 to 267 °C.

These data come from a melting point compilation (Tetko et al.; mined from patent text by program, amines drawn as free bases though some values may be those of a salt).
